Data set [1] can be described thus: L-carnosine stability in simulated gastric and intestinal fluids. It counts as physicochemical. The following applies: for % Remaining: 10 μM, 37.0° C. The method, then: Three fluids were simulated: fasted (pH 1.2) and fed (pH 3.5) simulated gastric fluid (SGF) and simulated intestinal fluid (SIF) (pH 6.8). […] A zero time point was taken after adding the appropriate stock to each fluid (N=2) and mixed by pipette. Time points were then taken at 5, 10, 15, 30, 60, 90, and 120 minutes. These were quenched with ACN and kept on ice. The samples were then added to 50% ACN in […] ammonium acetate buffer (pH=3.6) with Verapamil for Internal Standard (IS) and filtered before analysis.
Two concentrations of working stocks were made at 5000 ng/ml and 200 ng/ml. In Table 12, diluent is 50% ACN in […] ammonium acetate buffer (pH=3.6). The total analytical volume was 200 μL for all standards and samples. Six sets of QCs were used along with the samples and seven calibration standards. All were analyzed by UPLC-MS/MS on the same day as preparation.

For data set [2], the system named is Caco-2 cells. Nature of the data set: Carnosine permeability across Caco-2 cells. The data set is classed as in vitro ADME, Human. Conditions: Caco-2 passage 26, A-->B. Here is the method:
(§1) The study was performed using Caco-2 cells at a passage number of 26 seeded on a 24-well transwell plates. The permeability of carnosine was studied at a concentration of 20 μM. Compounds were solubilized in HBSS and added to apical compartment of transwells and blank buffer on basolateral side.

A short description of data set [3]: Carnosine permeability across Caco-2 cells. The data set is classed as in vitro ADME, Human. Conditions: human; Caco-2 passage 26; 20 μM in HBSS; apical to basolateral. Here is the method: as §1
Data set [4] relates to Caco-2 cells. As to the kind of experiment: CoQ10 Caco-2 permeability. The data set is classed as in vitro ADME, Human. The following applies: Caco-2 passage 38, A --> B. The method, then:
(§2) The study was performed using Caco-2 cells at a passage number of 38 seeded on a 24-well transwell plate. […] Instead, the formulation was added to the HBSS buffer at a concentration of 1 mg/mL, vortexed, and centrifuged for 15 min at 10,000 G-force. The supernatant was used for permeability assessment. For pure compound, the permeability study was performed at 10 μM final concentration. Compound solutions were added to the apical compartments of the transwell and blank buffer on the basolateral side. FIG. 9 provides a visual summary of this process.

Data set [5] can be described thus: CoQ10 Caco-2 permeability. It counts as in vitro ADME, Human. Conditions: human; Caco-2 passage 38; formulation: supernatant of 1 mg/mL in HBSS; pure compound 10 μM; apical to basolateral. Here is the method:
as §2

In data set [6] the test system is Caco-2 cells. As to the kind of experiment: Berberine chloride Caco-2 permeability. It counts as in vitro ADME, Human. The following applies: Caco-2 passage 38, A --> B. The method, then:
as §2

A short description of data set [7]: Berberine chloride Caco-2 permeability. The data set is classed as in vitro ADME, Human. Conditions: human; Caco-2 passage 38; formulation: supernatant of 1 mg/mL in HBSS; pure compound 10 μM; apical to basolateral. The method, then: as §2
Data set [8] concerns Caco-2 cells. Nature of the data set: Quercetin Caco-2 permeability. Conditions: Caco-2 passage 28, A-->B. The data set is classed as in vitro ADME, Human. The method, then: (§3) The study was performed using Caco-2 cells at a passage number of 28 seeded on a 96-well Transwell plates. Permeability was studied at a concentration of 20 μM. Compounds were solubilized in HBSS and added to apical compartment of the Transwell plate and blank buffer on basolateral side. FIG. 17 provides a visual summary of this process.

Data set [9] can be described thus: Quercetin Caco-2 permeability. The following applies: human; Caco-2 passage 28; 20 μM in HBSS; apical to basolateral. The data set is classed as in vitro ADME, Human. Here is the method: as §3
A short description of data set [10]: Randomized, double-blind, placebo-controlled crossover trial: plasma and leukocyte vitamin C concentration after single dose. It counts as in vivo, human. The following applies: single 500 mg dose; p<0.001. Here is the method:
Venous blood samples were collected 0, 0.5-, 1-, 1.5-, 2-, 3-, 4-, 6-, 8-, 12-, and 24-hours after ingestion and were analyzed for plasma and leukocyte vitamin C concentration.

Consider `NCCC(=O)N[C@@H](Cc1cnc[nH]1)C(=O)O` [Carnosine, L-carnosine], for which the “% Remaining” value in data set [1] (Fasted SGF (pH 1.2), 0 minutes) is reported as 100%; in data set [1] (Fasted SGF (pH 1.2), 5 minutes), 100.3%; in data set [1] (Fasted SGF (pH 1.2), 10 minutes), 95.5%; in data set [1] (Fasted SGF (pH 1.2), 15 minutes), 97.5%; in data set [1] (Fasted SGF (pH 1.2), 30 minutes), 94%; in [1] (Fasted SGF (pH 1.2), 60 minutes) it was 99.4%. Moreover, the “% Remaining” value is listed as 101.5% in data set [1] (Fasted SGF (pH 1.2), 90 minutes); 96.5% in [1] (Fasted SGF (pH 1.2), 120 minutes); 100% in [1] (Fed SGF (pH 3.5), 0 minutes); 103.9% in data set [1] (Fed SGF (pH 3.5), 5 minutes); 97.6% in data set [1] (Fed SGF (pH 3.5), 10 minutes); 91.9% in [1] (Fed SGF (pH 3.5), 15 minutes). The “% Remaining” value in [1] (Fed SGF (pH 3.5), 30 minutes) is listed as 96.5%; in data set [1] (Fed SGF (pH 3.5), 60 minutes), 102.2%; in [1] (Fed SGF (pH 3.5), 90 minutes), 97.4%; in data set [1] (Fed SGF (pH 3.5), 120 minutes), 97.4%; in [1] (SIF (pH 6.8), 0 minutes), 100%; in [1] (SIF (pH 6.8), 5 minutes), 96.9%. Besides, the “% Remaining” value in data set [1] (SIF (pH 6.8), 10 minutes) is reported as 91%; in [1] (SIF (pH 6.8), 15 minutes), 89%; in [1] (SIF (pH 6.8), 30 minutes) it was 95.8%; in data set [1] (SIF (pH 6.8), 60 minutes) it was 103%; in data set [1] (SIF (pH 6.8), 90 minutes), 100.1%; in data set [1] (SIF (pH 6.8), 120 minutes), 99.1%. Moreover, in data set [1] (over 120 minutes), the “stability in SGF and SIF” value is recorded as “stable”. Further, in data set [2], the “Permeability Class (High/Low)” value was “Low”. In addition, the Papp A→B at 20 μM in data set [3] came out at 3.05 ± 0.62 ×10⁻⁶ cm/s.
Consider `COC1=C(OC)C(=O)C(C/C=C(\C)CC/C=C(\C)CC/C=C(\C)CC/C=C(\C)CC/C=C(\C)CC/C=C(\C)CC/C=C(\C)CC/C=C(\C)CC/C=C(\C)CCC=C(C)C)=C(C)C1=O` [CoQ10 Reference Standard, CoQ10], for which the “Permeability Class (High/Low)” value in data set [4] is “Low”. In data set [5], the Papp A→B at 10 μM came to 0.2 ± 0.13 ×10⁻⁶ cm/s.
Turning to `COc1ccc2cc3[n+](cc2c1OC)CCc1cc2c(cc1-3)OCO2` [Sigma Aldrich Berberine Chloride, Berberine Chloride], the “Permeability Class (High/Low)” value in [6] is “Low”. In addition, the apparent permeability from apical to basolateral (Papp A→B) at 10 μM in data set [7] amounted to 2.17 ± 0.17 ×10⁻⁶ cm/s.
On to `O=c1c(O)c(-c2ccc(O)c(O)c2)oc2cc(O)cc(O)c12` [USP Quercetin, quercetin], for which, in data set [8], the “Permeability Class (High/Low)” value is recorded as “High”. Besides, the Papp A→B at 20 μM in data set [9] worked out at 8.83 ± 0.17 ×10⁻⁶ cm/s.
Regarding `O=C1O[C@H]([C@@H](O)CO)C(O)=C1O` [VIT C, L-Ascorbic acid], the “Cmax and AUC0-24 in plasma and in leukocytes compared to placebo” value in [10] is “significantly greater”.

Values taken from patent publication US12673026B2, “Liposomal compositions and methods of use thereof for improved stability, bioavailability and sustained release” (SpecNova LLC, priority 2023, dated 2026).
